Data set [1] can be described thus: in vitro. Type of data set: cell-based, human. Conditions: human, HEK293T Viability at 30 µM [%]. The method, then: Cytotoxic effects of test compounds on eukaryotic cells were investigated using a HEK293T cell viability assay. First, the cell density of a HEK293T culture was determined. […] The supernatant was then aspirated and fresh culture medium was added to 200 μL into which the test compounds were previously added. All substances were previously dissolved in DMSO. […] The viability of the cells was then examined by adding PrestoBlue® Cell Viability Agent (Invitrogen, Carlsbad, CA, USA). The supernatant was removed, 10% PrestoBlue® was added in preheated PBS and the culture was incubated for 30 min at 37 °C. In cells with an active metabolism, the PrestoBlue dye is reduced, causing it to fluorescence. The fluorescence (λex = 560 nm, λem = 590 nm) was measured in an EnVision Multilable Plate Reader (Perkin Elmer, Waltham, MA, USA; integration time 0.1 sec/well).

Data set [2] has as its target rPfGSK-3 (Plasmodium falciparum, UniProt O77344). Kind of data set: KinaseGlo Plus assay for inhibition of PfGSK-3. It is filed as biochemical. Conditions: 10 µM; remaining activity, calculated on DMSO controls; Table 3; read-out: rPfGSK-3 Activity at 10 µM [%].
Data set [3] has as its system erythrocytic forms of P. falciparum (strain 3D7). The data set can be described thus: Viability screening of antiplasmodial activity (SYBR-gold DNA quantification, 96 h). Type of data set: cell-based, Plasmodium falciparum. Conditions: for activity at 0.3 µM / activity at 3 µM / IC50: Plasmodium falciparum; for activity at 0.3 µM / activity at 3 µM: 96 h, strain 3D7, calculated on DMSO controls; for activity at 0.3 µM: read-out: Parasitemia (3D7) at 0.3 µM [%]; for activity at 3 µM: read-out: Parasitemia (3D7) at 3 µM [%]; for SI (Selectivity index for 3D7 erythrocytic forms versus HEK293 cells): 3D7 versus HEK293 cells; for IC50: 3D7, strain 3D7, erythrocytic forms; for IC50 (3D7) [nM]: strain 3D7, erythrocytic forms; for activity at 3 µM / antiplasmodial activity at the concentration investigated (in words): 3 µM.

Structures are written as SMILES. Counter-ions that a name gives are not always drawn. Where only a bound is given, the exact number is not on record here.

In general, viability refers to a read-out of living cells in per cent, often relative to untreated cells. What is called IC50 is the concentration that gives 50% inhibition. A low value points to greater potency in that assay.

Chain of rPfGSK-3 (O77344 entry or part of it): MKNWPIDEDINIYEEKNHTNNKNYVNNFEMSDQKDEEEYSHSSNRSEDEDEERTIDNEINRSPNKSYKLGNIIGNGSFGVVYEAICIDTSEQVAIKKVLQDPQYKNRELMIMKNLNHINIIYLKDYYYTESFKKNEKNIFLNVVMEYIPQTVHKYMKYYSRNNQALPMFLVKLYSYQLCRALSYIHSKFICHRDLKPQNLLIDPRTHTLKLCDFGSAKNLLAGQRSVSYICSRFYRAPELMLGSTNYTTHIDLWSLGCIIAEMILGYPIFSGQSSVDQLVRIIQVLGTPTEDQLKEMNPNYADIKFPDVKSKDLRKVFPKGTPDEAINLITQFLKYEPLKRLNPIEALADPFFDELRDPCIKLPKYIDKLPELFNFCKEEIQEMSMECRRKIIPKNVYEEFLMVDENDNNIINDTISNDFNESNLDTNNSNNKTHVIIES

Regarding `N#Cc1c(N)nc2sc(C(=O)Nc3cccc(Cl)c3)c(N)c2c1-c1ccc(N2CCNCC2)cc1Cl` [Compound 9q, 3,6-Diamino-4-[2-chloro-4-(piperazin-1-yl)phenyl]-N-(3-chlorophenyl)-5-cyanothieno[2,3-b]pyridine-2-carboxamide hydrochloride], the viability at 48 h, 30 µM in data set [1] is -13.1 ± 5.4%. Besides, the remaining activity at 10 µM in data set [2] is 72.6 ± 12.8%. In data set [3], the activity at 0.3 µM was 6.5 ± 3.1% and the activity at 3 µM was 4.9 ± 3%.

Turning to `N#Cc1c(N)nc2sc(C(=O)Nc3cccc(Cl)c3)c(N)c2c1-c1ccc(N2CCOCC2)cc1Cl` [Compound 9r, 3,6-Diamino-4-(2-chloro-4-morpholinophenyl)-N-(3-chlorophenyl)-5-cyanothieno[2,3-b]pyridine-2carboxamide], in data set [1], the viability at 48 h, 30 µM came out at 105 ± 10%. In data set [2], the remaining activity at 10 µM is 108 ± 16.5%. Moreover, in data set [3], the activity at 0.3 µM is 45.7 ± 17.2% and the activity at 3 µM was 2.8 ± 3.6%.

As to `N#Cc1c(N)nc2sc(C(=O)Nc3cccc(Cl)c3)c(N)c2c1-c1ccc(N2CCCC2)cc1Cl` [Compound 9s, 3,6-Diamino-4-[2-chloro-4-(pyrrolidin-1-yl)phenyl]-N-(3-chlorophenyl)-5-cyanothieno[2,3-b]pyridine-2-carboxamide], the viability at 48 h, 30 µM in data set [1] amounted to 114 ± 40.3%. Also, the remaining activity at 10 µM in data set [2] is 113 ± 15.9%. In data set [3], the activity at 0.3 µM is 78.3 ± 15.2% and the activity at 3 µM is 4.8 ± 5%.

For `N#Cc1c(N)nc2sc(C(=O)Nc3ccccc3Cl)c(N)c2c1-c1ccc(N2CCCC2)cc1Cl` [Compound 9t, 3,6-Diamino-4-[2-chloro-4-(pyrrolidin-1-yl)phenyl]-N-(2-chlorophenyl)-5-cyanothieno[2,3-b]pyridine-2-carboxamide], the viability at 48 h, 30 µM in data set [1] is 99 ± 22.6%. Besides, in data set [2], the remaining activity at 10 µM was 105 ± 6.6%. Further, in data set [3], the activity at 0.3 µM was 68.9 ± 27.3% and the activity at 3 µM is 60.6 ± 23.7%.

Turning to `N#Cc1c(N)nc2sc(C(=O)Nc3ccccc3Cl)c(N)c2c1-c1ccc(N2CCOCC2)cc1Cl` [Compound 9u, 3,6-Diamino-4-(2-chloro-4-morpholinophenyl)-N-(2-chlorophenyl)-5-cyanothieno[2,3-b]pyridine-2-carboxamide], in data set [1], the viability at 48 h, 30 µM amounted to 87 ± 26.7%. For the same compound, the remaining activity at 10 µM in data set [2] was 110 ± 6.2%. For the same compound, in data set [3], the activity at 0.3 µM is 74.5 ± 21.2% and the activity at 3 µM is 53.1 ± 29.6%.

On to `N#Cc1c(N)nc2sc(C(=O)Nc3ccc(Cl)cc3)c(N)c2c1-c1ccc(N2CCOCC2)cc1Cl` [Compound 9v, 3,6-Diamino-4-(2-chloro-4-morpholinophenyl)-N-(4-chlorophenyl)-5-cyanothieno[2,3-b]pyridine-2-carboxamide], for which the viability at 48 h, 30 µM in data set [1] came to 92.3 ± 18.8%. The remaining activity at 10 µM in data set [2] is 91.8 ± 18.7%. For the same compound, in data set [3], the “SI (Selectivity index for 3D7 erythrocytic forms versus HEK293 cells)” value was above 20, the IC50 amounted to 1470 nM, the activity at 0.3 µM is 51.8 ± 38.6% and the activity at 3 µM was 6.2 ± 6.1%.

As to `CN(CCNC(=O)OC(C)(C)C)c1ccc(-c2c(C#N)c(N)nc3sc(C(=O)Nc4cccc(Cl)c4)c(N)c23)c(Cl)c1` [Compound 9w, tert-Butyl {2-[(3-chloro-4-{3,6-diamino-2-[(3-chlorophenyl)carbamoyl]-5-cyanothieno[2,3-b]pyridin-4-yl}phenyl)(methyl)amino]ethyl}carbamate], the viability at 48 h, 30 µM in data set [1] came to 76.1 ± 17.3%. Moreover, the remaining activity at 10 µM in data set [2] is 95.3 ± 8.6%. Further, in data set [3], the “SI (Selectivity index for 3D7 erythrocytic forms versus HEK293 cells)” value is above 30, 860 nM corresponded to half-maximal inhibition (IC50), the activity at 0.3 µM was 50.1 ± 37.9% and the activity at 3 µM is 3.6 ± 2.4%.

With `N#Cc1c(N)nc2sc(C(=O)Nc3ccc(F)cc3)c(N)c2c1-c1ccc(N2CCOCC2)cc1Cl` [Compound 9x, 3,6-Diamino-4-(2-chloro-4-morpholinophenyl)-5-cyano-N-(4-fluorophenyl)thieno[2,3-b]pyridine-2-carboxamide], the viability at 48 h, 30 µM in data set [1] came to 86.1 ± 16%. Also, the remaining activity at 10 µM in data set [2] is 90.2 ± 8.9%. Moreover, in data set [3], the activity at 0.3 µM was 59 ± 43.6% and the activity at 3 µM was 8.7 ± 6.6%.

Take `CN(CCNC(=O)OC(C)(C)C)c1ccc(-c2c(C#N)c(N)nc3sc(C(=O)Nc4ccc(Cl)cc4)c(N)c23)c(Cl)c1` [Compound 9y, tert-Butyl {2-[(3-chloro-4-{3,6-diamino-2-[(4-chlorophenyl)carbamoyl]-5-cyanothieno[2,3-b]pyridin-4-yl}phenyl)(methyl)amino]ethyl}carbamate]: the viability at 48 h, 30 µM in data set [1] came out at 81.7 ± 19.6%. For the same compound, the remaining activity at 10 µM in data set [2] is 110 ± 7.7%. Besides, in data set [3], the “SI (Selectivity index for 3D7 erythrocytic forms versus HEK293 cells)” value is above 40, the IC50 amounted to 699 nM, the activity at 0.3 µM was 36.6 ± 27.4% and the activity at 3 µM was 5.5 ± 4.6%.

Turning to `N#Cc1c(N)nc2sc(C(=O)Nc3ccc(Cl)cc3)c(N)c2c1-c1ccc(N2CCCC2)cc1Cl` [Compound 9z, 3,6-Diamino-4-[2-chloro-4-(pyrrolidin-1-yl)phenyl]-N-(4-chlorophenyl)-5-cyanothieno[2,3-b]pyridine-2-carboxamide], in data set [1], the viability at 48 h, 30 µM is 91.9 ± 13.6%. Moreover, the remaining activity at 10 µM in data set [2] is 109 ± 4.9%. Besides, in data set [3], the activity at 0.3 µM was 73.1 ± 22.1% and the activity at 3 µM was 6.4 ± 5.8%.

For the compound `CC(C)(C)OC(=O)N1CCN(c2ccc(-c3c4c(nc5sc(C(=O)Nc6ccc(Cl)cc6)c(N)c35)CCC4)c(Cl)c2)CC1` [Compound 17a, tert-Butyl 4-(4-{3-amino-2-[(4-chlorophenyl)carbamoyl]-6,7-dihydro-5H-cyclopenta[b]thieno[3,2-e]-pyridin-4-yl}-3-chlorophenyl)piperazine-1-carboxylate], the viability at 48 h, 30 µM in data set [1] was 93.9 ± 6.5%. Also, in data set [2], the remaining activity at 10 µM is 102 ± 4%. In addition, in data set [3], the activity at 0.3 µM is 50.5 ± 26.3% and the activity at 3 µM is 8 ± 10.2%.

Regarding `Cc1cccc(-c2c3c(nc4sc(C(=O)Nc5ccc(Cl)cc5)c(N)c24)CCC3)c1` [Compound 17f, 3-Amino-N-(4-chlorophenyl)-4-(3-methylphenyl)-6,7-dihydro-5H-cyclopenta[b]thieno[3,2-e]pyridine-2-carboxamide], the viability at 48 h, 30 µM in data set [1] is 72.4 ± 23.4%. Moreover, the remaining activity at 10 µM in data set [2] is 103 ± 6.2%. In addition, in data set [3], the “SI (Selectivity index for 3D7 erythrocytic forms versus HEK293 cells)” value was above 100, the IC50 was determined as 19.2 nM, the activity at 0.3 µM is 9.1 ± 16.1% and the activity at 3 µM was 1 ± 14.9%. Further, the “IC50 (3D7) [nM]” value in data set [3] is recorded as “two-digit nanomolar range”.

As for `Cc1nc2sc(C(=O)Nc3ccc(Cl)cc3)c(N)c2c(-c2ccccc2)c1C(=O)OC(C)(C)C` [Compound 17g, tert-Butyl 3-amino-2-[(4-chlorophenyl)carbamoyl]-6-methyl-4-phenylthieno[2,3-b]pyridine-5-carboxylate], in data set [1], the viability at 48 h, 30 µM came to 56.9 ± 31.3%. Further, the remaining activity at 10 µM in data set [2] was 101 ± 5.5%. Also, in data set [3], the “SI (Selectivity index for 3D7 erythrocytic forms versus HEK293 cells)” value was above 100, the IC50 is 25.3 nM, the activity at 0.3 µM is 11.7 ± 10.1% and the activity at 3 µM was 9.8 ± 15.1%. Further, in data set [3], the “IC50 (3D7) [nM]” value is reported as “two-digit nanomolar range”.

With `Cc1cccc(-c2c(C(=O)OC(C)(C)C)c(C)nc3sc(C(=O)Nc4ccc(Cl)cc4)c(N)c23)c1` [Compound 17h, tert-Butyl 3-amino-2-[(4-chlorophenyl)carbamoyl]-6-methyl-4-(3-methylphenyl)thieno[2,3-b]pyridine-5-carboxylate], in data set [1], the viability at 48 h, 30 µM was below 50%. The remaining activity at 10 µM in data set [2] is 106 ± 5.3%. In data set [3], the activity at 0.3 µM was 11.8 ± 12.3% and the activity at 3 µM is 2.3 ± 14.5%.

In the case of `Cc1cccc(-c2c(C(=O)O)c(C)nc3sc(C(=O)Nc4ccc(Cl)cc4)c(N)c23)c1` [Compound 17i, 3-Amino-2-[(4-chlorophenyl)carbamoyl]-6-methyl-4-(3-methylphenyl)thieno[2,3-b]pyridine-5-carboxylic acid], the viability at 48 h, 30 µM in data set [1] is 87.6 ± 19.6%. Moreover, the remaining activity at 10 µM in data set [2] was 106 ± 8%. For the same compound, in data set [3], the “antiplasmodial activity at the concentration investigated (in words)” value is “only low”, the activity at 0.3 µM is 99.8 ± 18.8% and the activity at 3 µM was 62.4 ± 21.5%.

Regarding `Cc1nc2sc(C(=O)Nc3ccc(Cl)cc3)c(N)c2c(-c2ccccc2)c1C(=O)O` [Compound 17j, 3-Amino-2-[(4-chlorophenyl)carbamoyl]-6-methyl-4-phenylthieno[2,3-b]pyridine-5-carboxylic acid], the viability at 48 h, 30 µM in data set [1] stood at 95.8 ± 9.8%. Also, the remaining activity at 10 µM in data set [2] was 108 ± 10.4%. In addition, in data set [3], the “antiplasmodial activity at the concentration investigated (in words)” value is “no”, the activity at 0.3 µM was 76.1 ± 23.1% and the activity at 3 µM was 97.1 ± 19.9%.

For the compound `CC(C)(C)OC(=O)N1CCN(c2ccc(-c3c4c(nc5sc(C(=O)Nc6ccc(Cl)cc6)c(N)c35)CCCC4)c(Cl)c2)CC1` [Compound 17k, tert-Butyl 4-(4-{3-amino-2-[(4-chlorophenyl)carbamoyl]-5,6,7,8-tetrahydrothieno[2,3-b]quinolin-4-yl}-3-chlorophenyl)piperazine-1-carboxylate], the viability at 48 h, 30 µM in data set [1] worked out at 84.3 ± 14.3%. Moreover, the remaining activity at 10 µM in data set [2] was 106 ± 18.7%. Moreover, in data set [3], the activity at 0.3 µM is 30 ± 24.9% and the activity at 3 µM was 2.6 ± 9%.

Source of the values: paper PMC7397174, “4-Arylthieno[2,3-b]pyridine-2-carboxamides Are a New Class of Antiplasmodial Agents” (Molecules, 2020).
